Reference: paper PMC9774334 (ACS Omega, 2022)

Tests used:
TmaFuc = target: T1, TmaFuc (Thermotoga maritima, UniProt Q9WYE2); assay: p-nitrophenol release at […] nm; type: biochemical; settings: 2 mM substrate
T1 sequence (Q9WYE2 1-449): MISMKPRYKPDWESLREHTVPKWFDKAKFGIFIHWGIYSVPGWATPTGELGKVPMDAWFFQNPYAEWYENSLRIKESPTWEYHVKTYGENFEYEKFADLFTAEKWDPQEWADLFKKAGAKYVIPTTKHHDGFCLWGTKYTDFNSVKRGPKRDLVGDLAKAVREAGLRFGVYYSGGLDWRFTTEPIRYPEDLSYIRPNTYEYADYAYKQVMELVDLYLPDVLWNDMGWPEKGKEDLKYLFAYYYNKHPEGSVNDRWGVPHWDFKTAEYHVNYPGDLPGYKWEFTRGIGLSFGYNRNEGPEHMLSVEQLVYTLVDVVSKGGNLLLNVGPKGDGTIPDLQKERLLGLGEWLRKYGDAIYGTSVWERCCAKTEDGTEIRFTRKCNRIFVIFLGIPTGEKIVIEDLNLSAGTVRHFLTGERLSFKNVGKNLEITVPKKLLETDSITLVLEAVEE

ClAgl29B = target: T2, ClAgl29B (Cecembia lonarensis, UniProt K1KV82); assay: X-ray crystal structure, […] Å, soaking; type: binding; settings: active site; crystal pH 3.5, 30 mM L-glucose soak
T2 sequence (K1KV82 21-586): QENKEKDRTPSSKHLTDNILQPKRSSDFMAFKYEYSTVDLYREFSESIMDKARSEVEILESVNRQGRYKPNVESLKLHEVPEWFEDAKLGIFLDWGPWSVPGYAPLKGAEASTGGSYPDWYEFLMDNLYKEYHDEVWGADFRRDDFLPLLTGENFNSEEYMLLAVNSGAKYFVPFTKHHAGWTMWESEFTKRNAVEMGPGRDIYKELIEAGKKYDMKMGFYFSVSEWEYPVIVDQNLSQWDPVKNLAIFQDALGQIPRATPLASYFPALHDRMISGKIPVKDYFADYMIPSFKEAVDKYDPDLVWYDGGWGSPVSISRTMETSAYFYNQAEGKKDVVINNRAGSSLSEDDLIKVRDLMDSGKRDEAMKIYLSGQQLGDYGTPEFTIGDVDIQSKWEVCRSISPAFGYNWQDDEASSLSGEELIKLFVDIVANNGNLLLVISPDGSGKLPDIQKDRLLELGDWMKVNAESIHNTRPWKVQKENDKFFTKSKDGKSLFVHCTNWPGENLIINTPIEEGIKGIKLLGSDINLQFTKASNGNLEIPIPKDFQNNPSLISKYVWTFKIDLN

| Compound | p-nitrophenol release at 400 nm (TmaFuc) | X-ray crystal structure, 1.7 Å, soaking (ClAgl29B) |
| --- | --- | --- |
| C[C@@H]1O[C@@H](Oc2ccc([N+](=O)[O-])cc2)[C@@H](O)[C@H](O)[C@@H]1O [PNP α-L-Fuc] | TmaFuc hydrolyzed PNP α-L-Fuc | – |
| OC[C@@H]1O[C@H](O)[C@@H](O)[C@H](O)[C@H]1O [β-L-glucose] | – | The ClAgl29B complex obtained with β-L-glucose by a soaking experiment |
